Reference: US20250034170A1, “SMALL MOLECULE MODULATORS OF GLUCOCEREBROSIDASE ACTIVITY AND USES THEREOF” (Vanqua Bio, Inc., priority 2021, published 2025)
pEC50: −log10 of the molar value.

Molecular target: T1, GCase (Homo sapiens, UniProt P04062)
T1 construct: endogenous in cells; host or cells: HeLa cells
T1 sequence (P04062 40-536): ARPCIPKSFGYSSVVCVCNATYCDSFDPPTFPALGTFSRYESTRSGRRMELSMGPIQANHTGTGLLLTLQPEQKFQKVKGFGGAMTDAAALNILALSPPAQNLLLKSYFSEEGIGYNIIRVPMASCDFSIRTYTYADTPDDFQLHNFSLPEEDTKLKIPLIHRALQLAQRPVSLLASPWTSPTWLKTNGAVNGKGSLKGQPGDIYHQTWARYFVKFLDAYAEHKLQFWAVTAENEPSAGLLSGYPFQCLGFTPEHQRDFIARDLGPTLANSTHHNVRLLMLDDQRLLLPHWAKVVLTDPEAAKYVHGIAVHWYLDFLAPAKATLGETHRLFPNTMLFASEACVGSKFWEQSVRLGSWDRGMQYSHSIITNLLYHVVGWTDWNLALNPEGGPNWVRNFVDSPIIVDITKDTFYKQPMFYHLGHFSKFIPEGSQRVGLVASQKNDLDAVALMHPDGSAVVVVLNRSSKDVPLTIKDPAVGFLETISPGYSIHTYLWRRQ
Experiment: activation of GCase in a live cell PFB assay in HELA cells
Format: cell-based
Details: activation of GCase, EC50 ranges
Method: Exemplary compounds were evaluated for activation of GCase in a live cell PFB assay in HELA cells (essentially as described in Ysselstein et al., “LRRK2 kinase activity regulates lysosomal glucocerebrosidase in neurons derived from Parkinson's disease patients” Nature Communications (2019) 10:5570). […] EC50 ranges: A: <10 μM; B: >10-50 μM; C: >50-100 μM; D: >100 μM.

| Compound | pEC50 |
| --- | --- |
| COc1nn(CC(F)F)c2nc(N3CCC4(CC3)CCN(c3ccc(C(F)(F)F)nc3)C4=O)cnc12 [Cmpd 835] | > 5.00 |
| COc1nc2cnn(CC(F)F)c2nc1N1CCC2(CC1)CC(=O)N(c1ccc(C(F)(F)F)nc1)C2 [Cmpd 836] | > 5.00 |
| COc1nn(CC(F)F)c2nc(N3CCC4(CC3)CC(=O)N(c3ccc(C(F)(F)F)nc3)C4)cnc12 [Cmpd 837] | > 5.00 |
| O=C1N(c2nc(C(F)(F)F)co2)CCC12CCN(c1cnc3cnn(CC(F)F)c3n1)CC2 [Cmpd 838] | 4.30 to 5.00 |
| O=C1N(c2nnc(C(F)(F)F)o2)CCC12CCN(c1cnc3cnn(CC(F)F)c3n1)CC2 [Cmpd 839] | > 5.00 |
| O=C1N(c2nnc(C(F)(F)F)s2)CCC12CCN(c1cnc3cnn(CC(F)F)c3n1)CC2 [Cmpd 840] | > 5.00 |
| O=C1N(c2cnc(C(F)(F)F)s2)CCC12CCN(c1cnc3cnn(CC(F)F)c3n1)CC2 [Cmpd 841] | > 5.00 |
| Cc1cnc(C(F)(F)F)nc1N1CCC2(CCN(c3cnc4cnn(CC(F)F)c4n3)CC2)C1=O [Cmpd 842] | 4.30 to 5.00 |
| O=C1N(Cc2cnc(C(F)(F)F)nc2)CCC12CCN(c1cnc3cnn(CC(F)F)c3n1)CC2 [Cmpd 843] | 4.30 to 5.00 |
| O=C1N(Cc2ccnc(C(F)(F)F)n2)CCC12CCN(c1cnc3cnn(CC(F)F)c3n1)CC2 [Cmpd 844] | > 5.00 |
| Cn1cc(N2CCC3(CCN(c4cnc5cnn(CC(F)F)c5n4)CC3)C2=O)ccc1=O [Cmpd 845] | 4.30 to 5.00 |
| CCn1cc(N2CCC3(CCN(c4cnc5cnn(CC(F)F)c5n4)CC3)C2=O)ccc1=O [Cmpd 846] | 4.30 to 5.00 |
| CCn1nc(N2CCC3(CCN(c4cnc5cnn(CC(F)F)c5n4)CC3)C2=O)ccc1=O [Cmpd 847] | 4.30 to 5.00 |
| CC(C)N1C(=O)N(c2ccc(C(F)(F)F)nc2)C(=O)C12CCN(c1cnc3cnn(CC(F)F)c3n1)CC2 [Cmpd 848] | 4.30 to 5.00 |
| CCN1C(=O)N(c2ccc(C(F)(F)F)nc2)C(=O)C12CCN(c1cnc3cnn(CC(F)F)c3n1)CC2 [Cmpd 849] | > 5.00 |
| CCN1C(=O)N(c2ccnc(C(F)(F)F)c2)C(=O)C12CCN(c1cnc3cnn(CC(F)F)c3n1)CC2 [Cmpd 850] | > 5.00 |
| CCC1N(c2ccc(C(F)(F)F)cn2)C(=O)CC12CCN(c1cnc3cnn(CC(F)F)c3n1)CC2 (centres unmarked) [Cmpd 851] | > 5.00 |
| CCC1N(c2ccc(C(F)(F)F)nc2)C(=O)CC12CCN(c1cnc3cnn(CC(F)F)c3n1)CC2 (centres unmarked) [Cmpd 852] | 4.30 to 5.00 |
| CCC1N(c2ccnc(C(F)(F)F)c2)C(=O)CC12CCN(c1cnc3cnn(CC(F)F)c3n1)CC2 (centres unmarked) [Cmpd 853] | 4.30 to 5.00 |
| CC[C@H]1N(c2ccnc(C(F)(F)F)c2)C(=O)CC12CCN(c1cnc3cnn(CC(F)F)c3n1)CC2 [Cmpd 854] | 4.30 to 5.00 |
| CC[C@@H]1N(c2ccnc(C(F)(F)F)c2)C(=O)CC12CCN(c1cnc3cnn(CC(F)F)c3n1)CC2 [Cmpd 855] | 4.30 to 5.00 |
| O=C1CC2(CCN(c3cnc4cnn(C5COC5)c4n3)CC2)CN1c1ccc(C(F)(F)F)nc1 [Cmpd 856] | 4.30 to 5.00 |
| O=C1CC2(CCN(c3cnc4cnn(C5COC5)c4n3)CC2)CN1c1ccc(C(F)(F)F)cn1 [Cmpd 857] | > 5.00 |
| CCC1N(c2ccc(C(F)(F)F)nc2)C(=O)CC12CCN(c1cnc3cnn(C4COC4)c3n1)CC2 (centres unmarked) [Cmpd 858] | 4.30 to 5.00 |
| CCC1N(c2ccc(C(F)(F)F)cn2)C(=O)CC12CCN(c1cnc3cnn(C4COC4)c3n1)CC2 (centres unmarked) [Cmpd 859] | 4.30 to 5.00 |
| CCN1C(=O)N(c2cnc3cnn(CC(F)F)c3n2)C(=O)C12CCN(c1ccc(C(F)(F)F)cn1)CC2 [Cmpd 860] | 4.30 to 5.00 |
| CCN1C(=O)N(c2cnc3cnn(CC(F)F)c3n2)C(=O)C12CCN(c1ccc(C(F)(F)F)nc1)CC2 [Cmpd 861] | > 5.00 |
| O=C1CC2(CCN(c3cnc4cnn(C5COC5)c4n3)CC2)CN1c1cnc(C(F)(F)F)cn1 [Cmpd 862] | < 4.00 |
| O=C1C[C@@]2(CC3CCC2CN3c2cnc3cnn(CC(F)F)c3n2)CN1c1ccc(C(F)(F)F)cn1 (some centres unmarked) [Cmpd 863] | > 5.00 |
| O=C1C[C@]2(CC3CCC2CN3c2cnc3cnn(CC(F)F)c3n2)CN1c1ccc(C(F)(F)F)cn1 (some centres unmarked) [Cmpd 864] | 4.30 to 5.00 |

Other lines, results leading:

| pEC50 | Compound |
| --- | --- |
| 4.30 to 5.00 | O=C1CC2(CC3CCC2CN3c2cnc3cnn(CC(F)F)c3n2)CN1c1ccc(C(F)(F)F)nc1 (centres unmarked) [Cmpd 865] |
| 4.30 to 5.00 | CCN1C(=O)N(c2ccc(C(F)(F)F)nc2)C(=O)C12CCN(c1cnc3cnn(C4COC4)c3n1)CC2 [Cmpd 866] |
| < 4.00 | CC(C)N1C(=O)N(c2ccc(C(F)(F)F)nc2)C(=O)C12CCN(c1cnc3cnn(C4COC4)c3n1)CC2 [Cmpd 867] |
| 4.30 to 5.00 | CCN1C(=O)N(c2ccc(C(F)(F)F)cc2)C(=O)C12CCN(c1cnc3cnn(CC(F)F)c3n1)CC2 [Cmpd 868] |
| 4.30 to 5.00 | CCN1C(=O)N(c2ccc(C(F)(F)F)cc2)C(=O)C12CCN(c1cnc3cnn(C4COC4)c3n1)CC2 [Cmpd 869] |
| < 4.00 | CCN1C(=O)N(c2ccc(C(F)(F)F)nc2)C(=O)C12CCN(c1cnc3c(C)nn(C4COC4)c3n1)CC2 [Cmpd 870] |
| 4.30 to 5.00 | CCN1C(=O)N(c2ccc(C(F)(F)F)nc2)C(=O)C12CCN(c1cnc3c(C)nn(CC(F)F)c3n1)CC2 [Cmpd 871] |
| > 5.00 | CCN1C(=O)N(c2ccc(C(F)(F)F)cc2)C(=O)C12CCN(c1cnc3c(C)nn(CC(F)F)c3n1)CC2 [Cmpd 872] |
| 4.30 to 5.00 | CCN1C(=O)N(c2ccc(C(F)(F)F)nc2)C(=O)C12CCN(c1ncc3cnn(CC(F)F)c3n1)CC2 [Cmpd 873] |
| > 5.00 | CCN1C(=O)N(c2ccc(C(F)(F)F)nc2)C(=O)C12CCN(c1ncc3c(C)nn(CC(F)F)c3n1)CC2 [Cmpd 874] |
| > 5.00 | O=C1N(c2ccc(C(F)(F)F)nc2)C(=O)C2(CCN(c3ncc4cnn(CC(F)F)c4n3)CC2)N1CC(F)F [Cmpd 875] |
| 4.30 to 5.00 | O=C1N(c2ccc(C(F)(F)F)nc2)C(=O)C2(CCN(c3cnc4cnn(CC(F)F)c4n3)CC2)N1CC(F)F [Cmpd 876] |
| > 5.00 | O=C1N(c2ccc(C(F)(F)F)nc2)C(=O)C2(CCN(c3cnc4cnn(CC(F)F)c4n3)CC2)N1CCOC(F)(F)F [Cmpd 877] |
| 4.30 to 5.00 | CCN1C(=O)N(c2ccc(C(F)(F)F)nc2)C(=O)C12CCN(c1ncc3c(C)nn(C4COC4)c3n1)CC2 [Cmpd 878] |
| > 5.00 | CN1C(=O)N(c2ccc(C(F)(F)F)nc2)C(=O)C12CCN(c1cnc3cnn(CC(F)F)c3n1)CC2 [Cmpd 879] |
| > 5.00 | O=C1N(c2ccc(C(F)(F)F)nc2)C(=O)C2(CCN(c3cnc4cnn(CC(F)F)c4n3)CC2)N1CCC1CC1 [Cmpd 880] |
| > 5.00 | O=C1N(c2ccc(C(F)(F)F)nc2)C(=O)C2(CCN(c3cnc4cnn(CC(F)F)c4n3)CC2)N1CCCC(F)(F)F [Cmpd 881] |
| 4.30 to 5.00 | O=C1N(c2ccc(C(F)(F)F)nc2)C(=O)C2(CCN(c3cnc4cnn(CC(F)F)c4n3)CC2)N1Cc1cncc(F)c1 [Cmpd 883] |
| 4.30 to 5.00 | Cc1nn(C2COC2)c2nc(N3CCC4(CC3)CCN(c3ccc(C(F)(F)F)nc3)C4=O)ncc12 [Cmpd 884] |
| 4.30 to 5.00 | Cc1nn(C2COC2)c2nc(N3CCC4(CC3)CCN(c3ccc(C(F)(F)F)nc3)C4=O)cnc12 [Cmpd 885] |
| 4.30 to 5.00 | O=C1N(c2ccc(C(F)(F)F)nc2)CCC12CCN(c1cnc3cnn(C4COC4)c3n1)CC2 [Cmpd 886] |
| 4.30 to 5.00 | Cc1nn(C2COC2)c2nc(N3CCC4(CCN(c5ccc(C(F)(F)F)nc5)C4)CC3)ncc12 [Cmpd 887] |
| > 5.00 | Cc1nn(C2COC2)c2nc(N3CCC4(CCN(c5ccc(C(F)(F)F)nc5)C4)CC3)cnc12 [Cmpd 888] |
